Measurements: the kinase profiling compilation of Christmann-Franck et al. (2016)

Experiments:
Experiment in all cases: radiometric filter-binding kinase assay, Kinase HotSpot
Settings in all cases: compound 0.5 µM; ATP 10 µM
STK3 (human) = STK3 (human) (UniProt Q13188)
CAMK4 (human) = CAMK4 (human) (UniProt Q16566)
NTRK2 (human) = NTRK2 (human) (UniProt Q16620)
IRAK4 (human) = IRAK4 (human) (UniProt Q9NWZ3)
IKBKB (human) = IKBKB (human) (UniProt O14920)
EPHB1 (human) = EPHB1 (human) (UniProt P54762)
ACVR1B (human) = ACVR1B (human) (UniProt P36896)
HIPK4 (human) = HIPK4 (human) (UniProt Q8NE63)
TEK (human) = TEK (human) (UniProt Q02763)
FLT1 (human) = FLT1 (human) (UniProt P17948)
FLT1 (human), sequence (P17948 whole entry, looked up): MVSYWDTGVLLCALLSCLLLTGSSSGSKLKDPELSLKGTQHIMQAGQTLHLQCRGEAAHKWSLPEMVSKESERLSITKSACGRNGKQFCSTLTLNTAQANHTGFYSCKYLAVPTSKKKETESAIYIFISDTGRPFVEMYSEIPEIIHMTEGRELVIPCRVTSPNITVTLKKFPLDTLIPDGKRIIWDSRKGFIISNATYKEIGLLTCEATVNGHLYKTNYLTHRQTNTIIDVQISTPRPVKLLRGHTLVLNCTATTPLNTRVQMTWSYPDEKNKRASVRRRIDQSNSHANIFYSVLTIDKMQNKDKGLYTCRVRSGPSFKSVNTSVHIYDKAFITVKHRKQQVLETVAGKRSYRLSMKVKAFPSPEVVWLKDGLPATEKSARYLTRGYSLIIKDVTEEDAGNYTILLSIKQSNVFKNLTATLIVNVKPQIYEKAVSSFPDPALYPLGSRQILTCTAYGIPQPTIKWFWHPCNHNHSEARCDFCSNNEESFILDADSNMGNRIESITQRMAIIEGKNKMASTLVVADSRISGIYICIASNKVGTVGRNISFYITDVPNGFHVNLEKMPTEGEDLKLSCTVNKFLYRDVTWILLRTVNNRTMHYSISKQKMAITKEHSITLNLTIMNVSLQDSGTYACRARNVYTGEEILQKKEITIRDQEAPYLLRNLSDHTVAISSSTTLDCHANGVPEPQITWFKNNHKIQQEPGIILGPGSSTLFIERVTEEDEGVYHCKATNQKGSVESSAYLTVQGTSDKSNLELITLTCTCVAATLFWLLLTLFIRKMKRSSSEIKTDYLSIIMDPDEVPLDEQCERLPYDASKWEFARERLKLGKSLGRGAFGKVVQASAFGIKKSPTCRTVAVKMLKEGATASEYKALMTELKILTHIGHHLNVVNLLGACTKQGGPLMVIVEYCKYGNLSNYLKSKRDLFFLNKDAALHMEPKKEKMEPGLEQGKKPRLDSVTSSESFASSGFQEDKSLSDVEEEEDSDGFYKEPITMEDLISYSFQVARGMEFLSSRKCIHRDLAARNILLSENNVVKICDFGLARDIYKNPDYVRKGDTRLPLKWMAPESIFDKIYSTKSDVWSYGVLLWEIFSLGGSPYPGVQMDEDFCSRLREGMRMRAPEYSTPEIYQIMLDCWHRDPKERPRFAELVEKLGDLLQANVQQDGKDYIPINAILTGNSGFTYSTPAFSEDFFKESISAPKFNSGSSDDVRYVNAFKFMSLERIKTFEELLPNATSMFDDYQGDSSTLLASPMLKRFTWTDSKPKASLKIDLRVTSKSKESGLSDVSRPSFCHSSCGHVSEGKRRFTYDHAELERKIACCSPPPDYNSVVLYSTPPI

PAK2 (human) = PAK2 (human) (UniProt Q13177)
WEE1 (human) = WEE1 (human) (UniProt P30291)
TEC (human) = TEC (human) (UniProt P42680)
CSK (human) = CSK (human) (UniProt P41240)
KDR (human) = KDR (human) (UniProt P35968)
PRKCI (human) = PRKCI (human) (UniProt P41743)
MAPK12 (human) = MAPK12 (human) (UniProt P53778)
MAPK1 (human) = MAPK1 (human) (UniProt P28482)
FES (human) = FES (human) (UniProt P07332)
CDK1 CCNA2 (human) = CDK1 CCNA2 (human) (UniProt P06493+P20248)
GRK4 (human) = GRK4 (human) (UniProt P32298)
ZAP70 (human) = ZAP70 (human) (UniProt P43403)
DAPK1 (human) = DAPK1 (human) (UniProt P53355)
DAPK1 (human), sequence (P53355 whole entry, looked up): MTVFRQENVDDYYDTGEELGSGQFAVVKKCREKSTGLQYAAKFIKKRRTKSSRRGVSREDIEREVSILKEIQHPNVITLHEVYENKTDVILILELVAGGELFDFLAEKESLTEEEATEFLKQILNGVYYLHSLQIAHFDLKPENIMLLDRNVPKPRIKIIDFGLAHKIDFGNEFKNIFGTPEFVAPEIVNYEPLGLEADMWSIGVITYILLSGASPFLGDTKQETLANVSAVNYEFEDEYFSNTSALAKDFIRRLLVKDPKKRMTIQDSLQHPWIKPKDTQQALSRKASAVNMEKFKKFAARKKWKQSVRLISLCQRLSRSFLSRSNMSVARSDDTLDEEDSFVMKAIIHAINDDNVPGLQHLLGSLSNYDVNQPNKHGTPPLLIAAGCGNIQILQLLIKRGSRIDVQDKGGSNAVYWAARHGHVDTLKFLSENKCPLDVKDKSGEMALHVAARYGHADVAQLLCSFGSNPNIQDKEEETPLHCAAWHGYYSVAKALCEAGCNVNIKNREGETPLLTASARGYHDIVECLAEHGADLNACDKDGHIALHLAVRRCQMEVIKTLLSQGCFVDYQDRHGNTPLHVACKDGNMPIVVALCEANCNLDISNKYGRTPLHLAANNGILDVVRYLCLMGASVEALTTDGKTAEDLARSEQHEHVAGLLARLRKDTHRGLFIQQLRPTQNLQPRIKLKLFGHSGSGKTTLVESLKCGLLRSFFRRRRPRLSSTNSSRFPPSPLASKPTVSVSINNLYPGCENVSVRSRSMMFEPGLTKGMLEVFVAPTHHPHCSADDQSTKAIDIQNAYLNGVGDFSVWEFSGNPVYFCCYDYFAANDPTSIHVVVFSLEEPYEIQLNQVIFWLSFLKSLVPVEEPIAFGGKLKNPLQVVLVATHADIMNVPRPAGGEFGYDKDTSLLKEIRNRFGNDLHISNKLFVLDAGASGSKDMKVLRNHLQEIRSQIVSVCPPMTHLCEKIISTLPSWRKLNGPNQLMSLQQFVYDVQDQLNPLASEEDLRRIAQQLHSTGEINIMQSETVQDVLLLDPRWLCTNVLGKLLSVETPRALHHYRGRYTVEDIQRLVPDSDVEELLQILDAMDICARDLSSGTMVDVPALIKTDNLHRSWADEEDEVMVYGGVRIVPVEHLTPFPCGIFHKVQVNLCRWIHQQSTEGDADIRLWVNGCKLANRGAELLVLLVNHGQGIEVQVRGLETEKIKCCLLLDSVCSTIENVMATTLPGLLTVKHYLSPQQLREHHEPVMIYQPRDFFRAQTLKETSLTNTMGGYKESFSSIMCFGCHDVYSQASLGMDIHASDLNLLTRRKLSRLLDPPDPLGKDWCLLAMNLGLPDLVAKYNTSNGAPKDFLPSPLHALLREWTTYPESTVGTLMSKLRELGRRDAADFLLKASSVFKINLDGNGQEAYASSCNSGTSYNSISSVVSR

IKBKE (human) = IKBKE (human) (UniProt Q14164)
IKBKE (human), sequence (Q14164 whole entry, looked up): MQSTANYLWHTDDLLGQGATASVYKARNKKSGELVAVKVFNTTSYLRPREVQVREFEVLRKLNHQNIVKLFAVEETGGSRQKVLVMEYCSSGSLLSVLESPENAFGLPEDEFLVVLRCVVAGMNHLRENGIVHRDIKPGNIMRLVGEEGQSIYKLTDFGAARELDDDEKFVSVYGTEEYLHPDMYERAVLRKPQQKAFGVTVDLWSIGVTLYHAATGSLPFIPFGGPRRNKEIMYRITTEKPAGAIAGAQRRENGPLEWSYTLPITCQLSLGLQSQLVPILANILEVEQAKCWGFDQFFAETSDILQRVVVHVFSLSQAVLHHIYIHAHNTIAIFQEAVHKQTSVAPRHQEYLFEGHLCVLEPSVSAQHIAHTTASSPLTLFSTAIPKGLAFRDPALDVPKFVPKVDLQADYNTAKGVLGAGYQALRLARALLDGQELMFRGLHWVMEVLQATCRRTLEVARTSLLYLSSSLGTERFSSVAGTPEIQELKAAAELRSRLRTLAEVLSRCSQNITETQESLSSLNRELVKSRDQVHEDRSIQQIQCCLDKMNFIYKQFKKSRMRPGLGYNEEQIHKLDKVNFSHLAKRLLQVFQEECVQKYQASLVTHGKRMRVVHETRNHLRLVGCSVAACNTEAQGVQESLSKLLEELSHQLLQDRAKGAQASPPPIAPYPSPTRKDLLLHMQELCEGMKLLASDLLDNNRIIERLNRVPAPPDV

CSNK2A1 (human) = CSNK2A1 (human) (UniProt P68400)
BTK (human) = BTK (human) (UniProt Q06187)
PRKCB2 (human) = PRKCB2 (human) (UniProt P05771)
PIM3 (human) = PIM3 (human) (UniProt Q86V86)
RAF1 (human) = RAF1 (human) (UniProt P04049)
NTRK3 (human) = NTRK3 (human) (UniProt Q16288)
MAPK14 (human) = MAPK14 (human) (UniProt Q16539)
PAK7 (human) = PAK7 (human) (UniProt Q9P286)
SGK3 (human) = SGK3 (human) (UniProt Q96BR1)
ULK1 (human) = ULK1 (human) (UniProt O75385)
CAMK1G (human) = CAMK1G (human) (UniProt Q96NX5)
SYK (human) = SYK (human) (UniProt P43405)
PAK4 (human) = PAK4 (human) (UniProt O96013)
AURKA (human) = AURKA (human) (UniProt O14965)
AURKA (human), sequence (O14965 whole entry, looked up): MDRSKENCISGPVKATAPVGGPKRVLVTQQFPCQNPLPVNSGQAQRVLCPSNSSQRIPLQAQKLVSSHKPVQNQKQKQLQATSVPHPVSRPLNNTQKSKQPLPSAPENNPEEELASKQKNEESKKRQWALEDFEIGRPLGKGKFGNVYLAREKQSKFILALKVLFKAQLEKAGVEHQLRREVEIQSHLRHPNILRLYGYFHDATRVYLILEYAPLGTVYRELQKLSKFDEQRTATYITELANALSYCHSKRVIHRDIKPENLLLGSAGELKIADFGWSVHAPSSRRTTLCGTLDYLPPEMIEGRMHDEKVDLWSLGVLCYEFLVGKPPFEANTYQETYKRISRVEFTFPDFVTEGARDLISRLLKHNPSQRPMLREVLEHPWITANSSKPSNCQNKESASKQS

MAP4K5 (human) = MAP4K5 (human) (UniProt Q9Y4K4)
RPS6KA3 KD1 KD2 (human) = RPS6KA3 KD1 KD2 (human) (UniProt P51812)
RET (human) = RET (human) (UniProt P07949)
NEK2 (human) = NEK2 (human) (UniProt P51955)

IKBKB (human), sequence (O14920 whole entry, looked up): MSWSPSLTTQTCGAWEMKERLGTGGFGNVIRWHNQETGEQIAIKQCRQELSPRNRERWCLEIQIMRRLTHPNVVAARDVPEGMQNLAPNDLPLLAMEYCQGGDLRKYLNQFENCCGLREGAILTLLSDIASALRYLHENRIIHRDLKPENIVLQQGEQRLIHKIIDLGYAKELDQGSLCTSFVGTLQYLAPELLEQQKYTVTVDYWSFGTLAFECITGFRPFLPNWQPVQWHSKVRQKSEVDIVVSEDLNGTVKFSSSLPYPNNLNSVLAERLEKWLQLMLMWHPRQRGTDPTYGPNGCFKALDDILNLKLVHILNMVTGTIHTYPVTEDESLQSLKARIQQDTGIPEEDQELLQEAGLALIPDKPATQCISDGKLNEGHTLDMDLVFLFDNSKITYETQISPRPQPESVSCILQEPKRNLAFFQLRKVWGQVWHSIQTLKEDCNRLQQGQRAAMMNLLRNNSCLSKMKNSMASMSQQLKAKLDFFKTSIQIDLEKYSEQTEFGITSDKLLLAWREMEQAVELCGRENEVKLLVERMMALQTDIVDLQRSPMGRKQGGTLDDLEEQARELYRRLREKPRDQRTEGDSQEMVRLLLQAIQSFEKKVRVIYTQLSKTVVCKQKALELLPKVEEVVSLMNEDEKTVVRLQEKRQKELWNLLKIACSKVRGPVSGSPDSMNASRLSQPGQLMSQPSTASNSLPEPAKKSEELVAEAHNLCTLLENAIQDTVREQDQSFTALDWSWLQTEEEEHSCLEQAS
IRAK4 (human), sequence (Q9NWZ3 whole entry, looked up): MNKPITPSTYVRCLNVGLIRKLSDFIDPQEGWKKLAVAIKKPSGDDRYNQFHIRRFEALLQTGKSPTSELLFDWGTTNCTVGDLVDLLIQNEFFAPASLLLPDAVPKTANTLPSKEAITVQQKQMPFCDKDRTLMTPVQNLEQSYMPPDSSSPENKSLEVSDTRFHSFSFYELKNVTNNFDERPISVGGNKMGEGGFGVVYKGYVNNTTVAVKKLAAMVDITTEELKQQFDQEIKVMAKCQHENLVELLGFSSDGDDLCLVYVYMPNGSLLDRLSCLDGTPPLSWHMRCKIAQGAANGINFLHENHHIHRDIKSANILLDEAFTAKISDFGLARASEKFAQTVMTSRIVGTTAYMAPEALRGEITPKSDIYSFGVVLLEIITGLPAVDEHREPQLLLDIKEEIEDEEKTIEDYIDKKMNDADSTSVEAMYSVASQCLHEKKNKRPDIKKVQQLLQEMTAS

What does the source list for `COc1ccc2c(c1)/C(=C/c1cnc[nH]1)C(O)=N2`?
residual activity (STK3 (human)): 12.2%; residual activity (CAMK4 (human)): 97.4%; residual activity (NTRK2 (human)): 30.1%; residual activity (IRAK4 (human)): 92.2%; residual activity (IKBKB (human)): 94.9%; residual activity (EPHB1 (human)): 92.2%; residual activity (ACVR1B (human)): 105%; residual activity (HIPK4 (human)): 90.8%; residual activity (TEK (human)): 98.4%; residual activity (FLT1 (human)): 73.9%; residual activity (PAK2 (human)): 97.7%; residual activity (WEE1 (human)): 94.2%; residual activity (TEC (human)): 91.6%; residual activity (CSK (human)): 96.1%; residual activity (KDR (human)): 78.7%; residual activity (PRKCI (human)): 96.9%; residual activity (MAPK12 (human)): 95.5%; residual activity (MAPK1 (human)): 93.1%; residual activity (FES (human)): 97%; residual activity (CDK1 CCNA2 (human)): 43.7%; residual activity (GRK4 (human)): 93.6%; residual activity (ZAP70 (human)): 92.8%; residual activity (DAPK1 (human)): 105%; residual activity (IKBKE (human)): 92.5%; residual activity (CSNK2A1 (human)): 67.8%; residual activity (BTK (human)): 101%; residual activity (PRKCB2 (human)): 110%; residual activity (PIM3 (human)): 99%; residual activity (RAF1 (human)): 98.3%; residual activity (NTRK3 (human)): 9.35%; residual activity (MAPK14 (human)): 97.7%; residual activity (PAK7 (human)): 96.9%; residual activity (SGK3 (human)): 101%; residual activity (ULK1 (human)): 53.4%; residual activity (CAMK1G (human)): 95.6%; residual activity (SYK (human)): 93.9%; residual activity (PAK4 (human)): 100%; residual activity (AURKA (human)): 69%

How did the residual activity (STK3 (human)) turn out when `COc1cc(Nc2c(C#N)cnc3cc(OCCCN4CCN(C)CC4)c(OC)cc23)c(Cl)cc1Cl` was run?
Its residual activity is 13.9%.

What about the residual activity (CAMK4 (human)) of the same molecule?
The residual activity was 90.7%.

And the residual activity (NTRK2 (human))?
The residual activity was 69.2%.

And the residual activity (MAP4K5 (human))?
The residual activity was 1.72%.

What about the residual activity (IRAK4 (human)) of the same molecule?
The residual activity was 63.2%.

And the residual activity (IKBKB (human))?
Its residual activity is 95.4%.

What about the residual activity (EPHB1 (human)) of the same molecule?
Its residual activity is 11.8%.

And the residual activity (ACVR1B (human))?
Its residual activity is 105%.

What about the residual activity (HIPK4 (human)) of the same molecule?
The residual activity was 74.6%.

And the residual activity (RPS6KA3 KD1 KD2 (human))?
Its residual activity is 80.1%.

What about the residual activity (TEK (human)) of the same molecule?
Its residual activity is 82.6%.

And the residual activity (FLT1 (human))?
Its residual activity is 44.5%.

What about the residual activity (PAK2 (human)) of the same molecule?
The residual activity was 69.4%.

And the residual activity (WEE1 (human))?
Its residual activity is 40.5%.

And the residual activity (TEC (human))?
Its residual activity is 96.1%.

And the residual activity (CSK (human))?
The residual activity was 12.3%.

And the residual activity (PRKCI (human))?
Its residual activity is 99.4%.

What about the residual activity (MAPK12 (human)) of the same molecule?
The residual activity was 99.9%.

And the residual activity (MAPK1 (human))?
The residual activity was 93.7%.

And the residual activity (RET (human))?
The residual activity was 18.9%.

And the residual activity (CDK1 CCNA2 (human))?
Its residual activity is 96.9%.

And the residual activity (GRK4 (human))?
The residual activity was 92.4%.

And the residual activity (ZAP70 (human))?
Its residual activity is 101%.

What about the residual activity (DAPK1 (human)) of the same molecule?
Its residual activity is 106%.

And the residual activity (IKBKE (human))?
Its residual activity is 75.4%.

And the residual activity (CSNK2A1 (human))?
The residual activity was 116%.

And the residual activity (BTK (human))?
The residual activity was 5.69%.

What about the residual activity (PRKCB2 (human)) of the same molecule?
Its residual activity is 88.4%.

What about the residual activity (PIM3 (human)) of the same molecule?
The residual activity was 97.7%.

And the residual activity (RAF1 (human))?
The residual activity was 105%.

What about the residual activity (MAPK14 (human)) of the same molecule?
Its residual activity is 88.6%.

What about the residual activity (PAK7 (human)) of the same molecule?
Its residual activity is 83.6%.

What about the residual activity (SGK3 (human)) of the same molecule?
Its residual activity is 94.4%.

What about the residual activity (ULK1 (human)) of the same molecule?
The residual activity was 79.1%.

What about the residual activity (CAMK1G (human)) of the same molecule?
The residual activity was 82.7%.

What about the residual activity (NEK2 (human)) of the same molecule?
Its residual activity is 8.56%.

What about the residual activity (SYK (human)) of the same molecule?
Its residual activity is 21.1%.

And the residual activity (PAK4 (human))?
The residual activity was 95.8%.

What about the residual activity (AURKA (human)) of the same molecule?
The residual activity was 86%.

What does the source list for `N#Cc1c[nH]c2c[nH]/c(=N\Cc3cccnc3)cc2/c1=N\c1ccc(F)c(Cl)c1`?
residual activity (STK3 (human)): 94.3%; residual activity (CAMK4 (human)): 95.2%; residual activity (NTRK2 (human)): 101%; residual activity (MAP4K5 (human)): 61.7%; residual activity (IRAK4 (human)): 100%; residual activity (IKBKB (human)): 103%; residual activity (EPHB1 (human)): 93.1%; residual activity (ACVR1B (human)): 99%; residual activity (HIPK4 (human)): 93.1%; residual activity (RPS6KA3 KD1 KD2 (human)): 99.1%; residual activity (TEK (human)): 95.5%; residual activity (FLT1 (human)): 88%; residual activity (PAK2 (human)): 66.6%; residual activity (WEE1 (human)): 74.3%; residual activity (TEC (human)): 118%; residual activity (CSK (human)): 95.2%; residual activity (KDR (human)): 96.3%; residual activity (PRKCI (human)): 94.7%; residual activity (MAPK1 (human)): 105%; residual activity (FES (human)): 108%; residual activity (RET (human)): 107%; residual activity (CDK1 CCNA2 (human)): 88%; residual activity (GRK4 (human)): 98.8%; residual activity (ZAP70 (human)): 103%; residual activity (DAPK1 (human)): 102%; residual activity (IKBKE (human)): 90.6%; residual activity (CSNK2A1 (human)): 95.9%; residual activity (BTK (human)): 98.3%; residual activity (PRKCB2 (human)): 86.2%; residual activity (PIM3 (human)): 85%; residual activity (RAF1 (human)): 90.9%; residual activity (NTRK3 (human)): 93.2%; residual activity (MAPK14 (human)): 115%; residual activity (PAK7 (human)): 98.3%; residual activity (SGK3 (human)): 91.5%; residual activity (ULK1 (human)): 76.1%; residual activity (CAMK1G (human)): 96.1%; residual activity (NEK2 (human)): 75.2%; residual activity (SYK (human)): 94.4%; residual activity (PAK4 (human)): 85.4%; residual activity (AURKA (human)): 98.1%
